Key:
Assay in all cases: viability relative to DMSO control (fraction); higher = less drug effect (more viable cells)
Conditions in all cases: 48 h
[1] = tested on: primary ALL patient cells (S088)
Summary of the method: (§1)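 Viability is given as CellTiter-Glo luminescence relative to the median of 16 inner DMSO wells. Fresh or cryopreserved primary mononuclear tumour cells from blood, bone marrow (both Ficoll-isolated) or processed lymph node were plated at 4 × 10^4 cells per well in 384-well plates against five pre-plated compound concentrations, one well each. Incubation lasted 48 h at 37 °C and 5% CO2 in RPMI-1640 with penicillin/streptomycin, L-glutamine and human serum.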

[2] = tested on: primary AML patient cells (S011)
Summary of the method: as §1

[3] = tested on: primary AML patient cells (S019)
Summary of the method: as §1

[4] = tested on: primary AML patient cells (S037)
Summary of the method: as §1

[5] = tested on: primary AML patient cells (S060)
Summary of the method: as §1

[6] = tested on: primary AML patient cells (S071)
Summary of the method: as §1

[7] = tested on: primary AML patient cells (S085)
Summary of the method: as §1

[8] = tested on: primary AML patient cells (S089)
Summary of the method: as §1

[9] = tested on: primary AML patient cells (S091)
Summary of the method: as §1

[10] = tested on: primary B-PLL patient cells (S016)
Summary of the method: as §1

[11] = tested on: primary CLL patient cells (S031)
Summary of the method: as §1

[12] = tested on: primary DLBCL patient cells (S082)
Summary of the method: as §1

[13] = tested on: primary FL patient cells (S087)
Summary of the method: as §1

[14] = tested on: primary MCL patient cells (S041)
Summary of the method: as §1

`O=C(Nc1cccc(C(F)(F)F)c1)Nc1cc(S(=O)(=O)NC2CC2)ccc1-c1ccsc1` [AGI-6780] gave a viability ([1]; 0.024 µM) of 0.408, a viability ([1]; 0.12 µM) of 0.417 and a viability ([1]; 0.6 µM) of 0.322. The viability ([1]; 3 µM) was 0.258, the viability ([1]; 15 µM) was 0.205 and the viability ([2]; 0.024 µM) was 0.76. The viability ([2]; 0.12 µM) was 0.761, the viability ([2]; 0.6 µM) was 0.802 and the viability ([2]; 3 µM) was 0.778. The viability ([2]; 15 µM) was 0.666, the viability ([3]; 0.024 µM) was 1.17 and the viability ([3]; 0.12 µM) was 1.26. The viability ([3]; 0.6 µM) was 1.27, the viability ([3]; 3 µM) was 1.13 and the viability ([3]; 15 µM) was 1.18. For the same molecule, the viability ([4]; 0.024 µM) was 0.971, the viability ([4]; 0.12 µM) was 1.02 and the viability ([4]; 0.6 µM) was 0.955. The viability ([4]; 3 µM) was 0.877, the viability ([4]; 15 µM) was 0.889 and the viability ([5]; 0.024 µM) was 0.963. For the same molecule, the viability ([5]; 0.12 µM) was 1, the viability ([5]; 0.6 µM) was 0.991 and the viability ([5]; 3 µM) was 0.886. The viability ([5]; 15 µM) was 0.91, the viability ([6]; 0.024 µM) was 0.803 and the viability ([6]; 0.12 µM) was 0.828. It also gave a viability ([6]; 0.6 µM) of 0.826, a viability ([6]; 3 µM) of 0.78 and a viability ([6]; 15 µM) of 0.607. The viability ([7]; 0.024 µM) was 0.793, the viability ([7]; 0.12 µM) was 0.809 and the viability ([7]; 0.6 µM) was 0.734. The viability ([7]; 3 µM) was 0.672, the viability ([7]; 15 µM) was 0.691 and the viability ([8]; 0.024 µM) was 0.717. The viability ([8]; 0.12 µM) was 0.925, the viability ([8]; 0.6 µM) was 0.822 and the viability ([8]; 3 µM) was 0.84. The viability ([8]; 15 µM) was 0.637, the viability ([9]; 0.024 µM) was 1.02 and the viability ([9]; 0.12 µM) was 1.05. For the same molecule, the viability ([9]; 0.6 µM) was 0.975, the viability ([9]; 3 µM) was 0.989 and the viability ([9]; 15 µM) was 0.924. The viability ([10]; 0.024 µM) was 0.776, the viability ([10]; 0.12 µM) was 0.947 and the viability ([10]; 0.6 µM) was 0.954. It also gave a viability ([10]; 3 µM) of 0.851, a viability ([10]; 15 µM) of 0.981 and a viability ([11]; 0.024 µM) of 0.679. For the same molecule, the viability ([11]; 0.12 µM) was 0.703, the viability ([11]; 0.6 µM) was 0.727 and the viability ([11]; 3 µM) was 0.701. It also gave a viability ([11]; 15 µM) of 0.612, a viability ([12]; 0.024 µM) of 0.796 and a viability ([12]; 0.12 µM) of 0.96. The viability ([12]; 0.6 µM) was 0.91, the viability ([12]; 3 µM) was 0.905 and the viability ([12]; 15 µM) was 0.983. The viability ([13]; 0.024 µM) was 0.891, the viability ([13]; 0.12 µM) was 0.944 and the viability ([13]; 0.6 µM) was 0.923. For the same molecule, the viability ([13]; 3 µM) was 0.906, the viability ([13]; 15 µM) was 0.798 and the viability ([14]; 0.024 µM) was 0.913. It also gave a viability ([14]; 0.12 µM) of 0.898, a viability ([14]; 0.6 µM) of 0.856 and a viability ([14]; 3 µM) of 0.868. The viability ([14]; 15 µM) was 0.806.

For `CC(C)(C)C[C@@H]1N[C@@H](C(=O)N[C@H]2CC[C@H](O)CC2)[C@H](c2cccc(Cl)c2F)[C@]12C(=O)Nc1cc(Cl)ccc12` [MI-773], the viability ([1]; 0.008 µM) was 1, the viability ([1]; 0.04 µM) was 0.88 and the viability ([1]; 0.2 µM) was 0.701. The viability ([1]; 1 µM) was 0.366, the viability ([1]; 5 µM) was 0.151 and the viability ([2]; 0.008 µM) was 0.937. It also gave a viability ([2]; 0.04 µM) of 0.938, a viability ([2]; 0.2 µM) of 0.7 and a viability ([2]; 1 µM) of 0.465. The viability ([2]; 5 µM) was 0.218, the viability ([3]; 0.008 µM) was 1.34 and the viability ([3]; 0.04 µM) was 1.23. It also gave a viability ([3]; 0.2 µM) of 1.19, a viability ([3]; 1 µM) of 0.689 and a viability ([3]; 5 µM) of 0.343. It also gave a viability ([4]; 0.008 µM) of 1.04, a viability ([4]; 0.04 µM) of 1.01 and a viability ([4]; 0.2 µM) of 1.01. It also gave a viability ([4]; 1 µM) of 0.742, a viability ([4]; 5 µM) of 0.453 and a viability ([5]; 0.008 µM) of 1.06. It also gave a viability ([5]; 0.04 µM) of 0.997, a viability ([5]; 0.2 µM) of 1.09 and a viability ([5]; 1 µM) of 0.99. For the same molecule, the viability ([5]; 5 µM) was 1.09, the viability ([6]; 0.008 µM) was 0.991 and the viability ([6]; 0.04 µM) was 0.732. It also gave a viability ([6]; 0.2 µM) of 0.32, a viability ([6]; 1 µM) of 0.132 and a viability ([6]; 5 µM) of 0.0874. It also gave a viability ([7]; 0.008 µM) of 1.08, a viability ([7]; 0.04 µM) of 0.972 and a viability ([7]; 0.2 µM) of 0.849. It also gave a viability ([7]; 1 µM) of 0.481, a viability ([7]; 5 µM) of 0.204 and a viability ([8]; 0.008 µM) of 0.993. It also gave a viability ([8]; 0.04 µM) of 0.973, a viability ([8]; 0.2 µM) of 0.938 and a viability ([8]; 1 µM) of 0.842. The viability ([8]; 5 µM) was 0.493, the viability ([9]; 0.008 µM) was 0.979 and the viability ([9]; 0.04 µM) was 0.781. For the same molecule, the viability ([9]; 0.2 µM) was 0.587, the viability ([9]; 1 µM) was 0.428 and the viability ([9]; 5 µM) was 0.321. It also gave a viability ([10]; 0.008 µM) of 0.954, a viability ([10]; 0.04 µM) of 0.858 and a viability ([10]; 0.2 µM) of 0.771. For the same molecule, the viability ([10]; 1 µM) was 0.568, the viability ([10]; 5 µM) was 0.0958 and the viability ([11]; 0.008 µM) was 0.97. The viability ([11]; 0.04 µM) was 0.819, the viability ([11]; 0.2 µM) was 0.593 and the viability ([11]; 1 µM) was 0.439. The viability ([11]; 5 µM) was 0.0647, the viability ([12]; 0.008 µM) was 1.07 and the viability ([12]; 0.04 µM) was 0.971. For the same molecule, the viability ([12]; 0.2 µM) was 1.14, the viability ([12]; 1 µM) was 0.98 and the viability ([12]; 5 µM) was 1.03. The viability ([13]; 0.008 µM) was 1, the viability ([13]; 0.04 µM) was 0.99 and the viability ([13]; 0.2 µM) was 0.937. It also gave a viability ([13]; 1 µM) of 0.849, a viability ([13]; 5 µM) of 0.694 and a viability ([14]; 0.008 µM) of 1.02. The viability ([14]; 0.04 µM) was 0.976, the viability ([14]; 0.2 µM) was 0.92 and the viability ([14]; 1 µM) was 0.752. The viability ([14]; 5 µM) was 0.434.

Reference: the supplement of paper PMC10733146
